In one data set the test system is cholangiocarcinoma. The experiment in a line: Second line monotherapy trial in cholangiocarcinoma patients, CA19-9 marker. The data set is classed as in vivo, human. The source says: CA19-9 is a marker employed in the management of cholangiocarcinoma.
The test system of data set [1] is stage IV cholangiocarcinoma. As to the kind of experiment: Example 7: person, stage IV cholangiocarcinoma, Varlitinib with cisplatin/5-FU then monotherapy. The data set is classed as in vivo, human. As to the method: A person with stage IV cholangiocarcinoma newly diagnosed in 2014 received surgery (percutaneous […] cholangial drainage and transcatheter […] embolization), followed by adjuvant treatment of Varlitinib 400 mg BID combined with cisplatin s/5-FU 28-day cycle. After cycle 6 (14 Jul. 2015), only 400 mg BID Varlitinib was taken. Patient completed 10 cycles of monotherapy. At Cycle 11 Day 1, dose was reduced to 300 mg BID alternate days. […] 2015. Progressive disease observed in cycle 16 of monotherapy 12 Apr. 2016.

Data set [2] deals with stage IV cholangiocarcinoma. The experiment in a line: Example 1: person, stage IV EGFR positive cholangiocarcinoma, Varlitinib monotherapy. The data set is classed as in vivo, human.
A further data set deals with gastric tumours. The conditions noted are these: 500 mg orally BID monotherapy 28 days, gastric tumours co-expressing EGFR and HER2 or HER2 amplified, cited from earlier work.
The test system of data set [3] is advanced or metastatic biliary tract cancer. As to the kind of experiment: Example 10: Phase 2A single arm study of varlitinib plus capecitabine in Chinese patients (NCT03231176). The format is in vivo, human. The conditions noted are these: Varlitinib 300 mg BID plus capecitabine 1000 mg/m^2 BID 2 weeks on, 1 week off; ongoing study. The procedure:
This study is to assess the efficacy of varlitinib (300 mg twice daily in a 21-day cycle) plus capecitabine (1,000 mg/m^2 twice daily for 2 weeks followed by a 7-day rest period) in patients with advanced or metastatic BTC.
Primary Objective: • To assess the efficacy of varlitinib plus capecitabine in patients with advanced or metastatic biliary tract cancer who progressed on first line of systemic therapy as measured by Objective Response Rate (ORR) based on RECIST v1.1.
Secondary Objectives: • To evaluate the efficacy of varlitinib plus capecitabine, as measured by duration of confirmed response (DoR), progression-free survival (PFS), overall survival (OS) and disease control rate (DCR) • To assess the safety and tolerability of varlitinib when combined with capecitabine
A phase 2A, single arm, multicentre study of varlitinib plus capecitabine in Chinese patients with advanced or metastatic biliary tract cancer who progressed on at least 1 line of systemic therapy.
The Study duration is divided into 3 different stages.
• Have histologically or cytologically confirmed advanced (unresectable) or metastatic BTC, including intrahepatic or extrahepatic CCA, gallbladder cancer and carcinoma of Ampulla of Vater. […]

For data set [4], the system named is intrahepatic cholangiocarcinoma, stage IV. As to the kind of experiment: Example 8: person, stage IV intrahepatic cholangiocarcinoma, Varlitinib with mFOLFOX6 then monotherapy (ASLAN001-002SG). The format is in vivo, human. The conditions noted are these: after cycle 18. An excerpt: They received left hemihepatectomy followed by 6 cycles of adjuvant gemcitabine and cisplatin.

For data set [5], the system named is stage IV cholangiocarcinoma. As to the kind of experiment: Example 3: person, stage IV cholangiocarcinoma, Varlitinib with cisplatin/capecitabine. The data set is classed as in vivo, human. The conditions noted are these: Varlitinib 400 mg bi-daily, cisplatin and capecitabine. The procedure:
A person with stage IV cholangiocarcinoma (3 lesions) had progressive disease following treatment with: • radiotherapy, and • gemcitabine (Gemzar®) and cisplatin—6 months. […] The cisplatin and capecitabine regime was cisplatin 80 mg/m^2 IV infusion and capecitabine 1000 mg/m^2 orally twice daily for 14 days every 3 weeks.

For data set [6], the system named is stage IV cholangiocarcinoma and metastatic lymphadenopathy. The experiment in a line: Example 5: person, stage IV cholangiocarcinoma and metastatic lymphadenopathy, Varlitinib with cisplatin/5-FU. The format is in vivo, human. The conditions noted are these: 300 mg BID Varlitinib with cisplatin/5-FU. The procedure: A person was diagnosed with stage IV cholangiocarcinoma and metastatic lymphadenopathy in January 2016. No prior surgery or treatment was given before initiating first line treatment of 300 mg BID Varlitinib combined with […]/5-FU, 28-day treatment cycle. Date of the first response 5 Mar. 2016, tumor C2 was reduced by 16%. Last response tumor C4 was reduced by 13% (17 May 2016).

Where [7] appears, read: after treatment cycle 6, Varlitinib 400 mg bi-daily monotherapy.

This is an account of results in patent US20190117655A1, “Treatment of Biliary Duct Cancer” (ASLAN Pharmaceuticals PTE LTD, priority 2015, published 2019).

Structures are written as SMILES.

Turning to `C[C@@H]1COC(Nc2ccc3ncnc(Nc4ccc(OCc5nccs5)c(Cl)c4)c3c2)=N1` [Varlitinib, (R)—N4-[3-Chloro-4-(thiazol-2-ylmethoxy)-phenyl]-N6-(4-methyl-4,5,-dihydro-oxazol-2-yl)-quinazoline-4,6-diamine], in the data set on cholangiocarcinoma (one patient, within one month of initiating Varlitinib), the “Reduction in CA19-9” value is reported as 90%. Further, the CA19-9 levels entry in the data set on cholangiocarcinoma (second line Varlitinib monotherapy, cholangiocarcinoma patients) is reported as “significant reduction”. The “Cycle of treatment in which first response was observed” value in data set [1] (Varlitinib 400 mg BID with cisplatin/5-FU, 28-day cycle) was 2 cycle. In data set [1] (Varlitinib monotherapy after cycle 6), the “Cycle in which progressive disease was observed” value came out at 16 cycle. In data set [1] (varlitinib monotherapy after 6 cycles of varlitinib with cisplatin/5-FU), the Disease control entry is “remarkable disease control”. For the same compound, in data set [2] (setting [7]), the “Decrease in size of liver tumours” value is listed as “up to 23%” and the “Tumour marker CA 19-9 after treatment” value is about 250 U/ml. In data set [2] (level from which the marker fell), the “Tumour marker CA 19-9, starting level” value is listed as about 900 U/ml. Further, the “Signs of clinical activity: signalling pathways responsible for cell proliferation” value in the data set with gastric tumours (biopsies before/after) is given as “downregulation of signalling pathways responsible for cell proliferation”. The “Signs of clinical activity: cell survival and cell proliferation in gastric tumours” value in the data set on gastric tumours is “reduction in cell survival and cell proliferation”. In data set [3], the Safety and tolerability entry was “safe and tolerated without any unexpected adverse events”. For the same compound, the “Reduction in tumor size, best response from baseline” value in data set [4] (9 cycles Varlitinib 400 mg BID with mFOLFOX6, then 9 cycles monotherapy) is reported as 53%. Also, the Tumor assessment status result in data set [4] was “partial response”. Moreover, the Tolerability entry in data set [5] is recorded as “well tolerated”. In addition, the Response in data set [5] (after treatment cycle 6) is on record as 85.77%. For the same compound, in data set [5] (first two treatment cycles), the Dose limiting toxicity entry is “No dose limiting toxicity was observed”. For the same compound, the Current disease status result in data set [6] was “stable disease”. Moreover, the “Tumor reduction, first response” value in data set [6] (C2, first line) was determined as 16%. In addition, the “Tumor reduction, last response” value in data set [6] (C4, first line) is reported as 13%.
